Results as given in patent publication US8486962B2, “Antifungal agents” (F2G Ltd., priority 2005, dated 2013).
Converted amounts (≈) assume the structure as drawn.

Tests used:
Assay type in all cases: cell-based
Aspergillus flavus = experiment: MIC, YAG medium, Aspergillus flavus; conditions: YAG medium; for MIC: Aspergillus flavus, read-out: MIC A Flavus 01
Protocol: (§1) Measurement of Minimum Inhibitory Concentrations (MICs)
(§2) Between 1 and 5 mgs of compound were accurately weighed out into a sterile Eppendorf tube. The compound was dissolved in DMSO to give a solution containing 5 mg/ml. Tubes were stored at −20° C. until required.
(§3) On the day of testing thawed solutions were vortex mixed to ensure homogeneity. 30 μl of solution was removed and added to 570 μl of sterile water in a separate sterile Eppendorf. The thoroughly mixed solution was used to prepare a series of doubling dilutions in water, in a deep well plate. Eleven replicate plates were prepared using a Minitrak by aspirating 20 μl from each well into eleven clear polystyrene 96 well plates.
(§4) Spores of Aspergillus spp (Aspergillus fumigatus, Aspergillus terreus, Aspergillus niger and Aspergillus flavus) were harvested from cultures grown on Sabarauds agar for 5 days, and resuspended in PBS/Tween 80 to approx 1×10^7 cfu/ml Other filamentous fungi (Fusarium solani, Scedosporium spp., Trichophyton spp., Absidia corymbifera), were grown on Sabarauds agar for 2-10 days and spores/hyphae resuspended in PBS/Tween to give approx 1×10^7 cfU/ml. Candida species (Candida albicans, Candida glabrata, Candida krusei, Candida parapsilosis and Candida tropicalis) were grown on Sabarauds agar, cells were harvested from the agar using a sterile loop and resuspended in PBS/Tween 80 to approx 1×10^6 cfu/ml. Each organism suspension was diluted in RPMI medium, containing 2% glucose and 0.135M MOPS buffer (pH7.0) to 2×10^4 cfu/ml for Aspergillus spp and other filamentous fungi and 2×10^3 cfu/ml for yeast. 80 μl of an organism suspension was added to each well of the plate containing drug dilutions.
(§5) This produced MIC plates with a drug range 50-0.05 mg/L and organism inocula of 1-2×10^4 cfu/ml for Aspergillus spp and other filamentous fungi and 1-2×10^3 cfu/ml for yeasts. All plates were incubated for 24-48 hrs at 35° C. Growth was assessed by monitoring the optical density at 485 nm for each well. The MIC of a compound is the lowest drug concentration that inhibits growth of an organism by >80% compared with a drug free control. MICs are recorded as mg/L. Other growth media can be used for susceptibility testing, and the activity of the described compounds can also be assessed in a medium comprising, 1% glucose, 1% ammonium chloride and 0.5% yeast extract (YAG medium). To perform MIC tests in this medium, dilutions of compounds are prepared in microtitre plates as described above. Fungal strains to be tested are grown and harvested in an identical manner to that described above, each organism suspension is then diluted in YAG medium to 2×10^4 cfu/ml for Aspergillus spp and other filamentous fungi and 2×10^3 cfu/ml for yeast. 80 μl of an organism suspension was added to each well of the plate containing drug dilutions. This produced MIC plates with a drug range 50-0.05 mg/L and organism inocula of 1-2×10^4 cfu/ml for Aspergillus spp and other filamentous fungi and 1-2×10^3 cfu/ml for yeasts. All plates were incubated for 24 hrs at 35° C. Growth was assessed by monitoring the optical density at 485 nm for each well. The MIC of a compound is the lowest drug concentration that inhibits growth of an organism by >70% compared with a drug free control. MICs are recorded as mg/L. In cases where the MIC of an organism is […]0.05 mg/L the MIC is repeated using a concentration range of 0.5-0.0005 mg/L. MIC tests in YAG medium have more clear-cut endpoints and have slightly lower MICS than those performed in RPMI medium.
(§6) The following organisms were tested: Aspergillus fumigatus AF293 and Aspergillus fumigatus AF210, Aspergillus niger, Aspergillus terreus, Aspergillus favus, Candida albicans, Candida krusei, Candida tropicalis, Candida glabrata, Candida parapsilosis, Trichophyton rubrum, Trichophyton mentagrophytes, Scedosporium prolificans, Scedosporium apiospermum, Absidia corymbifera, Fusarium solani.

[1] = system: Aspergillus fumigatus AF293; experiment: MIC, YAG medium, Aspergillus fumigatus AF293; conditions: YAG medium; for MIC: Aspergillus fumigatus, AF293, read-out: MIC A Fum. 293
Protocol: as §1, §2, §3, §4, §5, §6

Aspergillus niger = experiment: MIC, YAG medium, Aspergillus niger; conditions: YAG medium; for MIC: Aspergillus niger, read-out: MIC A Niger 1
Protocol: as §1, §2, §3, §4, §5, §6

Aspergillus terreus = experiment: MIC, YAG medium, Aspergillus terreus; conditions: YAG medium; for MIC: Aspergillus terreus, read-out: MIC A Terreus 4
Protocol: as §1, §2, §3, §4, §5, §6

[2] = system: Aspergillus fumigatus AF210; experiment: MIC, YAG medium, Aspergillus fumigatus AF210; conditions: YAG medium; for MIC: Aspergillus fumigatus, AF210, read-out: MIC A Fum. 210
Protocol: as §1, §2, §3, §4, §5, §6

| SMILES | MIC (Aspergillus flavus) [µg/mL] | MIC [1] [µg/mL] | MIC (Aspergillus niger) [µg/mL] | MIC (Aspergillus terreus) [µg/mL] | MIC [2] [µg/mL] | MIC A Flavus 01 (Aspergillus flavus) [µg/mL] | MIC A Fum. 293 [1] [µg/mL] | MIC A Niger 1 (Aspergillus niger) [µg/mL] | MIC A Terreus 4 (Aspergillus terreus) [µg/mL] | MIC A Fum. 210 [2] [µg/mL] |
| --- | --- | --- | --- | --- | --- | --- | --- | --- | --- | --- |
| COC(=O)c1ccc(OC(=O)C(=O)c2c(-c3ccccc3)cc3ccccn23)cc1 [Example 177, 4-[2-Oxo-2-(2-phenyl-indolizin-3-yl)-acetoxy]-benzoic acid methyl ester] | > 50 | 50 (≈ 125 µM) | 6.25 (≈ 15.6 µM) | 6.25 (≈ 15.6 µM) | > 50 | – | – | – | – | – |
| O=C(NC1CCCCC1)C(=O)c1c(-c2ccccc2)cc2ccccn12 [Example 178, N-Cyclohexyl-2-oxo-2-(2-phenyl-indolizin-3-yl)-acetamide] | 1.6 (≈ 4.62 µM) | 0.8 (≈ 2.31 µM) | 0.2 (≈ 0.577 µM) | 0.1 (≈ 0.289 µM) | 0.8 (≈ 2.31 µM) | – | – | – | – | – |
| CNC(=O)C(=O)c1c(-c2ccccc2)cc2ccccn12 [Example 179, N-Methyl-2-oxo-2-(2-phenyl-indolizin-3-yl)-acetamide] | 25 (≈ 89.8 µM) | 12.5 (≈ 44.9 µM) | > 50 | 6.25 (≈ 22.5 µM) | 12.5 (≈ 44.9 µM) | – | – | – | – | – |
| CC(C)NC(=O)C(=O)c1c(-c2ccccc2)cc2ccccn12 [Example 180, N-Isopropyl-2-oxo-2-(2-phenyl-indolizin-3-yl)-acetamide] | > 50 | 6.25 (≈ 20.4 µM) | 3.1 (≈ 10.1 µM) | 6.25 (≈ 20.4 µM) | 6.25 (≈ 20.4 µM) | – | – | – | – | – |
| COCCNC(=O)C(=O)c1c(-c2ccccc2)cc2ccccn12 [Example 181, N-(2-Methoxy-ethyl)-2-oxo-2-(2-phenyl-indolizin-3-yl)-acetamide] | 25 (≈ 77.6 µM) | 50 (≈ 155 µM) | 25 (≈ 77.6 µM) | 25 (≈ 77.6 µM) | 25 (≈ 77.6 µM) | – | – | – | – | – |
| O=C(NCc1ccccc1)C(=O)c1c(-c2ccccc2)cc2ccccn12 [Example 182, N-Benzyl-2-oxo-2-(2-phenyl-indolizin-3-yl)-acetamide] | > 50 | > 50 | > 50 | 0.2 (≈ 0.564 µM) | > 50 | – | – | – | – | – |
| CN(C)C(=O)C(=O)c1c(-c2ccccc2)cc2ccccn12 [Example 183, N,N-Dimethyl-2-oxo-2-(2-phenyl-indolizin-3-yl)-acetamide] | > 50 | > 50 | > 50 | 12.5 (≈ 42.8 µM) | 25 (≈ 85.5 µM) | – | – | – | – | – |
| O=C(C(=O)N1CCCCC1)c1c(-c2ccccc2)cc2ccccn12 [Example 184, 1-(2-Phenyl-indolizin-3-yl)-2-piperidin-1-yl-ethane-1,2-dione] | 50 (≈ 150 µM) | 25 (≈ 75.2 µM) | 0.8 (≈ 2.41 µM) | 6.25 (≈ 18.8 µM) | 6.25 (≈ 18.8 µM) | – | – | – | – | – |
| CN(C(=O)C(=O)c1c(-c2ccccc2)cc2ccccn12)c1ccccc1 [Example 186, N-Methyl-2-oxo-N-phenyl-2-(2-phenyl-indolizin-3-yl)-acetamide] | 25 (≈ 70.5 µM) | 12.5 (≈ 35.3 µM) | 3.1 (≈ 8.75 µM) | 12.5 (≈ 35.3 µM) | 3.1 (≈ 8.75 µM) | – | – | – | – | – |
| CN(C(=O)C(=O)c1c(-c2cccnc2)cc2ccccn12)c1ccccc1 [Example 187, N-Methyl-2-oxo-N-phenyl-2-(2-pyridin-3-yl-indolizin-3-yl)-acetamide] | > 50 | > 50 | 3.1 (≈ 8.72 µM) | > 50 | > 50 | – | – | – | – | – |
| Cc1ccc(NC(=O)C(=O)c2c(-c3ccccc3)cc3cccc(C)n23)cc1 [Example 188, 2-(5-Methyl-2-phenyl-indolizin-3-yl)-2-oxo-N-p-tolyl-acetamide] | 3.1 (≈ 8.41 µM) | 1.6 (≈ 4.34 µM) | 0.4 (≈ 1.09 µM) | 0.8 (≈ 2.17 µM) | 0.8 (≈ 2.17 µM) | – | – | – | – | – |
| COc1ccc(NC(=O)C(=O)c2c(-c3ccccc3)cc3cccc(C)n23)cn1 [Example 189, N-(6-Methoxy-pyridin-3-yl)-2-(5-methyl-2-phenyl-indolizin-3-yl)-2-oxo-acetamide] | 3.1 (≈ 8.04 µM) | 3.1 (≈ 8.04 µM) | 0.8 (≈ 2.08 µM) | 1.6 (≈ 4.15 µM) | 3.1 (≈ 8.04 µM) | – | – | – | – | – |
| Cc1ccc(NC(=O)C(=O)c2c(-c3ccccc3)cc3ccc(C)cn23)cc1 [Example 190, 2-(6-Methyl-2-phenyl-indolizin-3-yl)-2-oxo-N-p-tolyl-acetamide] | 0.4 (≈ 1.09 µM) | 1.6 (≈ 4.34 µM) | 0.4 (≈ 1.09 µM) | 0.1 (≈ 0.271 µM) | 1.6 (≈ 4.34 µM) | – | – | – | – | – |
| Cc1ccc(NC(=O)C(=O)c2c(-c3ccccc3)cc3cc(C)ccn23)cc1 [Example 191, 2-(7-Methyl-2-phenyl-indolizin-3-yl)-2-oxo-N-p-tolyl-acetamide] | 0.8 (≈ 2.17 µM) | 3.1 (≈ 8.41 µM) | 1.6 (≈ 4.34 µM) | 0.2 (≈ 0.543 µM) | 3.1 (≈ 8.41 µM) | – | – | – | – | – |
| COc1ccc(NC(=O)C(=O)c2c(-c3ccccc3)cc3ccc(C)cn23)cn1 [Example 192, N-(6-Methoxy-pyridin-3-yl)-2-(6-methyl-2-phenyl-indolizin-3-yl)-2-oxo-acetamide] | 0.4 (≈ 1.04 µM) | 1.6 (≈ 4.15 µM) | 0.8 (≈ 2.08 µM) | 0.4 (≈ 1.04 µM) | 1.6 (≈ 4.15 µM) | – | – | – | – | – |
| COc1ccc(NC(=O)C(=O)c2c(-c3ccccc3)cc3cc(C)ccn23)cn1 [Example 193, N-(6-Methoxy-pyridin-3-yl)-2-(7-methyl-2-phenyl-indolizin-3-yl)-2-oxo-acetamide] | 6.25 (≈ 16.2 µM) | > 50 | > 50 | 0.8 (≈ 2.08 µM) | > 50 | – | – | – | – | – |
| COc1ccc(NC(=O)C(=O)c2c(-c3ccccc3)cc3c(C)cccn23)cn1 [Example 194, N-(6-Methoxoy-pyridin-3-yl)-2-(8-methyl-2-phenyl-indolizin-3-yl)-2-oxo-acetamide] | – | – | – | – | – | >50 | >50 | >50 | 25 (≈ 64.9 µM) | >50 |
| COc1ccc2cc(-c3ccccc3)c(C(=O)C(=O)Nc3ccc(OC)nc3)n2c1 [Example 195, 2-(6-Methoxy-2-phenyl-indolizin-3-yl)-N-(6-methoxy-pyridin-3-yl)-2-oxo-acetamide] | 0.4 (≈ 0.996 µM) | 6.25 (≈ 15.6 µM) | 1.6 (≈ 3.99 µM) | 0.4 (≈ 0.996 µM) | 6.25 (≈ 15.6 µM) | – | – | – | – | – |
| O=C(Nc1ccc(Cl)cc1)C(=O)c1c(-c2cccnc2)cc2ccccn12 [Example 197, N-(4-Chloro-phenyl)-2-oxo-2-(2-pyridin-3-yl-indolizin-3-yl)-acetamide] | 0.4 (≈ 1.06 µM) | 3.1 (≈ 8.25 µM) | 0.8 (≈ 2.13 µM) | 0.2 (≈ 0.532 µM) | 3.1 (≈ 8.25 µM) | – | – | – | – | – |
| O=C(Nc1ccc(F)cc1)C(=O)c1c(-c2cccnc2)cc2ccccn12 [Example 198, N-(4-Fluoro-phenyl)-2-oxo-2-(2-pyridin-3-yl-indolizin-3-yl)-acetamide] | 0.8 (≈ 2.23 µM) | 3.1 (≈ 8.63 µM) | 1.6 (≈ 4.45 µM) | 0.8 (≈ 2.23 µM) | > 50 | – | – | – | – | – |
| Cc1ccc(NC(=O)C(=O)c2c(-c3cccnc3)cc3ccc(C)cn23)cc1 [Example 199, 2-(6-Methyl-2-pyridin-3-yl-indolizin-3-yl)-2-oxo-N-p-tolyl-acetamide] | > 50 | > 50 | > 50 | 1.6 (≈ 4.33 µM) | > 50 | – | – | – | – | – |
| O=C(Nc1ccccc1Cl)C(=O)c1c(-c2ccccc2)cc2ccccn12 [Example 207, N-(2-Chloro-phenyl)-2-oxo-2-(2-phenyl-indolizin-3-yl)-acetamide] | 0.1 (≈ 0.267 µM) | 0.8 (≈ 2.13 µM) | 0.05 (≈ 0.133 µM) | 0.05 (≈ 0.133 µM) | 0.8 (≈ 2.13 µM) | – | – | – | – | – |
| CCOC(=O)c1ccccc1NC(=O)C(=O)c1c(-c2ccccc2)cc2ccccn12 [Example 208, 2-[2-Oxo-2-(2-phenyl-indolizin-3-yl)-acetylamino]-benzoic acid ethyl ester] | > 50 | > 50 | > 50 | 12.5 (≈ 30.3 µM) | > 50 | – | – | – | – | – |
